Holding throughout (assay): inside-out patch clamp, HEK293, macroscopic current at +[…] mV, Hill fit
Common to all, as to format: cell-based
For orientation: In patch-clamp work, channel activity is measured electrically.

Test [1] has as its target mouse TRPM4 (Mus musculus, UniProt Q7TN37).
Test [2] has as its target mouse TRPM4 (Mus musculus, UniProt Q7TN37, H160A).
For test [3], the target named is mouse TRPM4 (Mus musculus, UniProt Q7TN37, Y228A).
Test [4] deals with mouse TRPM4 (Mus musculus, UniProt Q7TN37, W214A).
Chain of mouse TRPM4 (Mus musculus, UniProt Q7TN37, W214A) (Q7TN37 whole entry W214A): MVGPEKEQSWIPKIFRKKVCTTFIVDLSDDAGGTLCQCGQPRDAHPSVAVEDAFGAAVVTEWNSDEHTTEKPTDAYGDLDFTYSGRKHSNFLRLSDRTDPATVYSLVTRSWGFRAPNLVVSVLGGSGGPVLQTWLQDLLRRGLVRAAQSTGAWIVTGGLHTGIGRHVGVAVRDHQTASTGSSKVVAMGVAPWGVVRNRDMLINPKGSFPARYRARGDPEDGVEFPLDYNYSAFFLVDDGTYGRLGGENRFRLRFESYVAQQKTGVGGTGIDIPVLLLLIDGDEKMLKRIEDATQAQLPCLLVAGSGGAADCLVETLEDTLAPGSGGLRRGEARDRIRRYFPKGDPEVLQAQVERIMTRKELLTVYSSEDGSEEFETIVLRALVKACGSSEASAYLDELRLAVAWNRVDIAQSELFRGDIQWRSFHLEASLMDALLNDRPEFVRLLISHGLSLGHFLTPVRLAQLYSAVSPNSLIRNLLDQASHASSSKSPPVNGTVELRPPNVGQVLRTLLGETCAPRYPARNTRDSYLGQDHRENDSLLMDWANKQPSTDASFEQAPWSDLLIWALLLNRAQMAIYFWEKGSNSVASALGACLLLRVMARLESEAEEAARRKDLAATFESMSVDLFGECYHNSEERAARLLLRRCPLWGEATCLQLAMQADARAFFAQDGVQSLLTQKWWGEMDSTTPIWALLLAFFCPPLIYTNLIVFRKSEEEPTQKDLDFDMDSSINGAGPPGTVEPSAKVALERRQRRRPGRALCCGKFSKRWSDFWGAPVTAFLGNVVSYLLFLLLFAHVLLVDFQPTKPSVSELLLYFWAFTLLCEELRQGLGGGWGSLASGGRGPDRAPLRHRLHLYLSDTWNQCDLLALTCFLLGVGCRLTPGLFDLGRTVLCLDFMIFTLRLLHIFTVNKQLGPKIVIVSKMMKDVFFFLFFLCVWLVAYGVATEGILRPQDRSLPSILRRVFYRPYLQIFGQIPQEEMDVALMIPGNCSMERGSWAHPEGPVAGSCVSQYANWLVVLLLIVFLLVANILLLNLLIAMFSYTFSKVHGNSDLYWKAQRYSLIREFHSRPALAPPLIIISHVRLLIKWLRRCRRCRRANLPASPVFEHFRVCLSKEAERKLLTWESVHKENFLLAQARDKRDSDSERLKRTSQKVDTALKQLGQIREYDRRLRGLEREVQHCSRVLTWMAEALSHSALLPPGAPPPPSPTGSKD

Some results are limits rather than exact numbers.

The IC50 is the concentration that gives 50% inhibition. High values mean weaker potency in that assay, low ones greater potency in that assay.

Chain of mouse TRPM4 (Mus musculus, UniProt Q7TN37, Y228A) (Q7TN37 whole entry Y228A): as the sequence (Q7TN37 whole entry W214A) above, with A214W, Y228A counted along it
Chain of mouse TRPM4 (Mus musculus, UniProt Q7TN37) (Q7TN37 whole entry): as the sequence (Q7TN37 whole entry W214A) above, with A214W counted along it
Chain of mouse TRPM4 (Mus musculus, UniProt Q7TN37, H160A) (Q7TN37 whole entry H160A): as the sequence (Q7TN37 whole entry W214A) above, with H160A, A214W counted along it

Turning to `Nc1ncnc2c1ncn2[C@@H]1O[C@H](COP(=O)(O)OP(=O)(O)OP(=O)(O)O)[C@@H](O)[C@H]1O` [ATP], the IC50 against mouse TRPM4 [1] is 2300 ± 500 nM; on mouse TRPM4 [2], above 160 µM; at mouse TRPM4 [3], 14.2 ± 0.7 µM; at mouse TRPM4 [4] it was 6.5 ± 0.8 µM.
